This is an account of results in patent US12545674B2, “Crystal of trifluoromethyl/chloro disubstituted sulfonamide selective BCL-2 inhibitor” (priority 2020, dated 2026).

The subject of data set [1] is human platelet caspase-3 activity. The experiment in a line: Human platelet toxicity study (caspase-3 activity assay). The class given is cell-based. Conditions: human platelets, compound concentration 1 μM, 90 min; normalized, reference ABT-199. As for the experimental part: 10 mL of human whole blood was collected using a heparin sodium anticoagulation tube, mixed well by turning upside down, and centrifuged at 90 g for 10 min. The supernatant was collected and centrifuged at 1950 g for 10 min. The supernatant was discarded, and the residue was resuspended in 4 mL of PBS, and centrifuged at 1190 g for 5 min. The procedure was repeated once. The supernatant was discarded, and the platelets were resuspended in PBS and adjusted to a density of 2-3×10^8 cells/mL. Cells were seeded into a 96-well plate at a density of […] and at 100 μL/well. 50 μL of control buffer was added to each negative control well, and 50 μL of compound at a corresponding concentration was added to each compound well to adjust the final concentration of the compound to 2.5 μM or 1 μM, followed by incubation in an incubator at 37° C. for 90 min. The liquids in the 96-well plate were transferred to 1.5 mL centrifuge tubes. […] The resulting mixture was mixed gently, and the plate was read by a PE Envision multi-functional microplate reader (excitation: 360 nm, emission: 460 nm) once every 10 min for 6 times. Caspase-3 activity was determined based on the intensity of the released AMC fluorescence, that is the slope of the fitted line to which each well corresponds represents Caspase activity (all data were normalized and the reference was ABT-199).

Data set [2] is described as follows: In vitro stability in liver microsomes, mouse. The class given is in vitro ADME. Conditions: 1 μM. As for the experimental part: (§1) 300 μL of the final incubation system contains 30 μL of liver microsomes (protein concentration: 5 mg/mL), 30 μL of NADPH+MgCl2, 3 μL of the test compound (in acetonitrile), and 237 μL of PBS buffer (pH 7.4). Among them, the proportion of the organic solvent (acetonitrile) was 1% (volume ratio). Samples were prepared in duplicate for each species (mouse, rat and human), with 0.3 mL each. […] 50 μL of the mixture was taken at 0 min, 15 min, 30 min and 60 min, and 300 μL of glacial acetonitrile containing an internal standard was added to terminate the reaction. 50 μL of the incubated sample was added with 300 μL of glacial acetonitrile containing an internal standard (20 ng/mL diazepam) for precipitation. The mixture was vortexed for 5 min, and centrifuged (13,000 rpm, 20° C.) for 10 min 70 μL of supernatant was taken and 70 μL of ultrapure water was added for dilution and homogeneous mixing. 1 μL of sample was injected for analysis.
(Microsomes from liver hold many membrane-bound enzymes, among them those of drug oxidation.)

Data set [3] relates to human B-cell leukemia RS4;11 subcutaneous xenograft. The experiment in a line: Pharmacodynamics in human B-cell leukemia RS4;11 subcutaneous xenograft model. In kind it is in vivo, NOD/SCID mice. Conditions: 25 mg/kg p.o. single dose, Day 17 after end of treatment. The text has this: NOD/SCID mice, female, aged 9-10 weeks (ages upon tumor cell grafting), body weight of 16.3-22.0 g. The mice were purchased from Beijing AniKeeper Biotech Co., Ltd. (production license number: SCXK (Jing) 2017-0006; animal certification number: 11402400013155). Breeding environment: SPF grade. Mice were grafted subcutaneously on the right anterior dorsal side with 1×10^7 RS4;11 cells. The day of grafting was defined as day 0. When the mean tumor volume was 240 mm^3, the mice were randomized by the tumor size. The administration was performed as per Table 16 below.
Clinical symptoms observed during the study were recorded in the raw data. Calculation formula for tumor volume: Tumor volume (mm^3)=½×(a×b^2) (where a represents long diameter and b represents short diameter). The data were collected using StudyDirector™ software (version No. 3.1.399.19, supplier: Studylog System, Inc., S.San Francisco, CA, USA) in the study, including measurements of the long and short diameters of the tumor and body weights of the animals. The raw data obtained from a balance and a vernier caliper were directly input into the software, and any change in the data was recorded. Relative tumor proliferation rate (T/C %) refers to the percentage of the relative tumor volume or tumor weight of the treatment and control groups at a certain time point. The calculation formula is as follows: T/C %=TRTV/CRTV×100%(TRTV:mean RTV for treatment group;CRTV:mean RTV for vehicle control group;RTV=Vt/V0, where V0 denotes the tumor volume of the animal upon grouping, and Vt denotes the tumor volume of the animal after treatment).
(T and C are the relative tumor volume (RTV) or tumor weight (TW) at a particular time point for the treatment and control groups, respectively).
All experimental results were expressed as mean tumor volume±SEM (standard error of mean). The relative tumor volume of the treatment group was compared with that of the control group for any significant difference by the independent sample T test. All the data were analyzed using SPSS 18.0. p<0.05 was defined as a significant difference.
A general note: Xenograft models place foreign cells or tissue in a host animal.

Data set [4] can be described thus: In vitro stability in liver microsomes, rat. The class given is in vitro ADME. The conditions noted are these: 1 μM. As for the experimental part: as §1
Data set [5] is described as follows: In vitro stability in liver microsomes, human. In kind it is in vitro ADME. Conditions: 1 μM. As for the experimental part: as §1

As to `CC1(C)CCC(CN2CCN(c3ccc(C(=O)NS(=O)(=O)c4ccc(NC[C@H]5COCCO5)c([N+](=O)[O-])c4)c(Oc4cnc5[nH]ccc5c4)c3)CC2)=C(c2ccc(C(F)(F)F)cc2Cl)C1` [Compound of formula I], in data set [1], the “Slope (caspase-3 activity)” value turned out to be 0.59. Also, the “Mouse Residuals at 60 min” value in data set [2] is reported as 73.9%. For the same molecule, in data set [3], the T/C – broadly, the ratio of treated to control – is 29.8%; the TGI (in general, the reduction of tumour growth relative to the control group) worked out at 70.2%; the “Tumor volume (x ± S)” value is 600.39 ± 32.88 mm^3. The “Rat Residuals at 60 min” value in data set [4] was 90.9%. In addition, in data set [5], the “Human Residuals at 60 min” value was 86.3%.
